System: Mycosphaerella graminicola; Anamorph: Septoria tritici
Assay: Leaf Blotch of Wheat (SEPTTR) disease control
Assay type: in vivo
Conditions: Zymoseptoria tritici, 24 h, 1 Day Protectant, rate 100 ppm; read-out: SEPTTR 1 DP disease control
Procedure, shortened: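 Preventive or curative tests: first-leaf Yuma wheat, sprayed to run-off, inoculated with S. tritici, dew chamber at 100% humidity, then greenhouse at 20° C. Severity on the first leaf is scored on a 0–100% scale and expressed as % control against untreated plants.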

SMILES | pest or weed control at 100 ppm
CCOCC(=O)OCOc1c(OC)ccnc1C(=O)N[C@H]1CCC[C@H](CC2CCCCC2)[C@@H](OCC(C)C)[C@H](C)OC1=O [Compound F175] | 80 to 100%
COc1ccnc(C(=O)N[C@H]2CCC[C@H](Cc3ccccc3)[C@@H](OCC3CC3)[C@H](C)OC2=O)c1OCOC(=O)C(C)C [Compound F152] | 80 to 100%
COc1ccnc(C(=O)N[C@H]2CCC[C@H](Cc3ccc(C)cc3)[C@@H](OCC(C)C)[C@H](C)OC2=O)c1OCOC(C)=O [Compound F126] | 80 to 100%
COc1ccc(C[C@H]2CCC[C@H](NC(=O)c3nccc(OC)c3OCOC(C)=O)C(=O)O[C@@H](C)[C@@H]2Oc2ccccc2)cc1 [Compound F114] | 80 to 100%

Same assay, conditions: Zymoseptoria tritici, 24 h, 1 Day Protectant, rate 121.5 g/H; read-out: SEPTTR 1 DP disease control

SMILES | pest or weed control at 121.5 g/ha
CCOCC(=O)OCOc1c(OC)ccnc1C(=O)N[C@H]1CCC[C@H](CC2CCCCC2)[C@@H](OCC(C)C)[C@H](C)OC1=O [Compound F175] | 80 to 100%
COc1ccnc(C(=O)N[C@H]2CCC[C@H](Cc3ccccc3)[C@@H](OCC3CC3)[C@H](C)OC2=O)c1OCOC(=O)C(C)C [Compound F152] | 80 to 100%
COc1ccnc(C(=O)N[C@H]2CCC[C@H](Cc3ccc(C)cc3)[C@@H](OCC(C)C)[C@H](C)OC2=O)c1OCOC(C)=O [Compound F126] | 80 to 100%
COc1ccc(C[C@H]2CCC[C@H](NC(=O)c3nccc(OC)c3OCOC(C)=O)C(=O)O[C@@H](C)[C@@H]2Oc2ccccc2)cc1 [Compound F114] | 80 to 100%

Same assay, conditions: Zymoseptoria tritici, 72 h, 3 Day Curative, rate 100 ppm; read-out: SEPTTR 3 DC disease control

SMILES | pest or weed control at 100 ppm
CCOCC(=O)OCOc1c(OC)ccnc1C(=O)N[C@H]1CCC[C@H](CC2CCCCC2)[C@@H](OCC(C)C)[C@H](C)OC1=O [Compound F175] | 80 to 100%
COc1ccnc(C(=O)N[C@H]2CCC[C@H](Cc3ccccc3)[C@@H](OCC3CC3)[C@H](C)OC2=O)c1OCOC(=O)C(C)C [Compound F152] | 80 to 100%
COc1ccnc(C(=O)N[C@H]2CCC[C@H](Cc3ccc(C)cc3)[C@@H](OCC(C)C)[C@H](C)OC2=O)c1OCOC(C)=O [Compound F126] | 80 to 100%
COc1ccc(C[C@H]2CCC[C@H](NC(=O)c3nccc(OC)c3OCOC(C)=O)C(=O)O[C@@H](C)[C@@H]2Oc2ccccc2)cc1 [Compound F114] | 80 to 100%

Same assay, conditions: Zymoseptoria tritici, 72 h, 3 Day Curative, rate 121.5 g/H; read-out: SEPTTR 3 DC disease control

SMILES | pest or weed control at 121.5 g/ha
CCOCC(=O)OCOc1c(OC)ccnc1C(=O)N[C@H]1CCC[C@H](CC2CCCCC2)[C@@H](OCC(C)C)[C@H](C)OC1=O [Compound F175] | 0 to 80%
COc1ccnc(C(=O)N[C@H]2CCC[C@H](Cc3ccccc3)[C@@H](OCC3CC3)[C@H](C)OC2=O)c1OCOC(=O)C(C)C [Compound F152] | 80 to 100%
COc1ccnc(C(=O)N[C@H]2CCC[C@H](Cc3ccc(C)cc3)[C@@H](OCC(C)C)[C@H](C)OC2=O)c1OCOC(C)=O [Compound F126] | 80 to 100%
COc1ccc(C[C@H]2CCC[C@H](NC(=O)c3nccc(OC)c3OCOC(C)=O)C(=O)O[C@@H](C)[C@@H]2Oc2ccccc2)cc1 [Compound F114] | 80 to 100%

System: Alternaria solani
Assay: Tomato Early Blight (ALTESO) disease control
Assay type: in vivo
Conditions: Alternaria solani, topical, 24 h, 1 Day Protectant, read-out: Disease Control ALTESO 1 DP
Experimental: Technical grades of materials were dissolved in acetone, which were then mixed with nine volumes of water containing 110 ppm Triton X-100. The fungicide solutions were applied onto wheat seedlings using an automated booth sprayer to run-off. All sprayed plants were allowed to air dry prior to further handling. All fungicides were evaluated using the aforementioned method for their activity vs. all target diseases. Wheat leaf blotch and brown rust activity were also evaluated using track spray applications, in which case the fungicides were formulated as EC formulations, containing 0.1% Trycol 5941 in the spray solutions. Wheat plants (variety Yuma) were grown from seed in a greenhouse in 50% mineral soil/50% soil-less Metro mix until the first leaf was fully emerged, with 7-10 seedlings per pot. These plants were inoculated with an aqueous spore suspension of Septoria tritici either prior to or after fungicide treatments. After inoculation the plants were kept in 100% relative humidity (one day in a dark dew chamber followed by two to three days in a lighted dew chamber at 20° C.) to permit spores to germinate and infect the leaf. The plants were then transferred to a greenhouse set at 20° C. for disease to develop. When disease symptoms were fully expressed on the 1st leaves of untreated plants, infection levels were assessed on a scale of 0 to 100 percent disease severity. Percent disease control was calculated using the ratio of disease severity on treated plants relative to untreated plants. Tomato plants (variety Outdoor girl) were propagated in soil-less Metro mix, with each pot having one plant, and used when 12 to 14 days old. Test plants were inoculated with an aqueous spore suspension of Alternaria solani 24 hr after fungicide treatments. After inoculation the plants were kept in 100% relative humidity (one day in a dark dew chamber followed by two to three days in a lighted dew chamber at 20° C.) to permit spores to germinate and infect the leaf. The plants were then transferred to a growth room at 22° C. for disease to develop. Fungicide formulation, application and disease assessment on the sprayed leaves followed the procedures as described in the Example A.

SMILES | pest or weed control at 100 ppm
CCOCC(=O)OCOc1c(OC)ccnc1C(=O)N[C@H]1CCC[C@H](CC2CCCCC2)[C@@H](OCC(C)C)[C@H](C)OC1=O [Compound F175] | 80 to 100%
COc1ccnc(C(=O)N[C@H]2CCC[C@H](Cc3ccccc3)[C@@H](OCC3CC3)[C@H](C)OC2=O)c1OCOC(=O)C(C)C [Compound F152] | 80 to 100%
COc1ccnc(C(=O)N[C@H]2CCC[C@H](Cc3ccc(C)cc3)[C@@H](OCC(C)C)[C@H](C)OC2=O)c1OCOC(C)=O [Compound F126] | 0 to 80%

System: Puccinia triticina; Synonym: Puccinia recondite f. Sp. Tritici
Assay: Wheat Brown Rust (PUCCRT) disease control
Assay type: in vivo
Conditions: Puccinia triticina, topical, 24 h, 1 Day Protectant, rate 100 ppm; read-out: PUCCRT 1 DP disease control
Procedure, shortened: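 Brown rust on first-leaf Yuma wheat: spore inoculation before or after spray application (acetone/Triton X-100 solution, or EC with Trycol in track spray), overnight 100% RH at 22 °C, disease developed at 24 °C. Severity scored 0–100% and converted to percent control against untreated.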

SMILES | pest or weed control at 100 ppm
CCOCC(=O)OCOc1c(OC)ccnc1C(=O)N[C@H]1CCC[C@H](CC2CCCCC2)[C@@H](OCC(C)C)[C@H](C)OC1=O [Compound F175] | 80 to 100%
COc1ccnc(C(=O)N[C@H]2CCC[C@H](Cc3ccccc3)[C@@H](OCC3CC3)[C@H](C)OC2=O)c1OCOC(=O)C(C)C [Compound F152] | 80 to 100%
COc1ccnc(C(=O)N[C@H]2CCC[C@H](Cc3ccc(C)cc3)[C@@H](OCC(C)C)[C@H](C)OC2=O)c1OCOC(C)=O [Compound F126] | 80 to 100%
COc1ccc(C[C@H]2CCC[C@H](NC(=O)c3nccc(OC)c3OCOC(C)=O)C(=O)O[C@@H](C)[C@@H]2Oc2ccccc2)cc1 [Compound F114] | 80 to 100%

Same assay, conditions: Puccinia triticina, topical, 24 h, 1 Day Protectant, rate 121.5 g/H; read-out: PUCCRT 1 DP disease control

SMILES | pest or weed control at 121.5 g/ha
CCOCC(=O)OCOc1c(OC)ccnc1C(=O)N[C@H]1CCC[C@H](CC2CCCCC2)[C@@H](OCC(C)C)[C@H](C)OC1=O [Compound F175] | 80 to 100%
COc1ccnc(C(=O)N[C@H]2CCC[C@H](Cc3ccccc3)[C@@H](OCC3CC3)[C@H](C)OC2=O)c1OCOC(=O)C(C)C [Compound F152] | 80 to 100%
COc1ccnc(C(=O)N[C@H]2CCC[C@H](Cc3ccc(C)cc3)[C@@H](OCC(C)C)[C@H](C)OC2=O)c1OCOC(C)=O [Compound F126] | 80 to 100%
COc1ccc(C[C@H]2CCC[C@H](NC(=O)c3nccc(OC)c3OCOC(C)=O)C(=O)O[C@@H](C)[C@@H]2Oc2ccccc2)cc1 [Compound F114] | 80 to 100%

Same assay, conditions: Puccinia triticina, topical, 72 h, 3 Day Curative, rate 100 ppm; read-out: PUCCRT 3 DC disease control

SMILES | pest or weed control at 100 ppm
CCOCC(=O)OCOc1c(OC)ccnc1C(=O)N[C@H]1CCC[C@H](CC2CCCCC2)[C@@H](OCC(C)C)[C@H](C)OC1=O [Compound F175] | 80 to 100%
COc1ccnc(C(=O)N[C@H]2CCC[C@H](Cc3ccccc3)[C@@H](OCC3CC3)[C@H](C)OC2=O)c1OCOC(=O)C(C)C [Compound F152] | 80 to 100%
COc1ccnc(C(=O)N[C@H]2CCC[C@H](Cc3ccc(C)cc3)[C@@H](OCC(C)C)[C@H](C)OC2=O)c1OCOC(C)=O [Compound F126] | 80 to 100%
COc1ccc(C[C@H]2CCC[C@H](NC(=O)c3nccc(OC)c3OCOC(C)=O)C(=O)O[C@@H](C)[C@@H]2Oc2ccccc2)cc1 [Compound F114] | 80 to 100%

Same assay, conditions: Puccinia triticina, topical, 72 h, 3 Day Curative, rate 121.5 g/H; read-out: PUCCRT 3 DC disease control

SMILES | pest or weed control at 121.5 g/ha
CCOCC(=O)OCOc1c(OC)ccnc1C(=O)N[C@H]1CCC[C@H](CC2CCCCC2)[C@@H](OCC(C)C)[C@H](C)OC1=O [Compound F175] | 0 to 80%
COc1ccnc(C(=O)N[C@H]2CCC[C@H](Cc3ccccc3)[C@@H](OCC3CC3)[C@H](C)OC2=O)c1OCOC(=O)C(C)C [Compound F152] | 80 to 100%
COc1ccnc(C(=O)N[C@H]2CCC[C@H](Cc3ccc(C)cc3)[C@@H](OCC(C)C)[C@H](C)OC2=O)c1OCOC(C)=O [Compound F126] | 0 to 80%
COc1ccc(C[C@H]2CCC[C@H](NC(=O)c3nccc(OC)c3OCOC(C)=O)C(=O)O[C@@H](C)[C@@H]2Oc2ccccc2)cc1 [Compound F114] | 0 to 80%

— patent US9265253B2, “Use of macrocyclic picolinamides as fungicides” (DOW AGROSCIENCES LLC, priority 2013, dated 2016)
